These results are taken from patent US20110034472A1, “Novel Compounds for Treatment of Cancer and Disorders Associated With Angiogenesis Function” (UNIVERSITY OF SOUTHERN CALIFORNIA, priority 2004, published 2011).

Data set [1] relates to HEY cells. Description: Cell cycle analysis (propidium iodide), SC21, HEY. The format is cell-based, human. As to conditions: 72 hours. On the procedure: FIG. 17 depicts flow cytometric analysis of the cell cycle profiles of DU145, PC3, MDA-MB-435, and HEY cells treated with SC21. […] SC21 induced a G0/G1 phase arrest in DU145 and MDA-MB-435 cells and S phase arrest in PC3 and HEY cells.
Cell cycle perturbations induced by SC21 and camptothecin (CPT) were analyzed by propidium iodide DNA staining. Briefly, exponentially growing PC3 and DU145 cells were treated with different doses of the drug for 24, 48, and 72 hours. At the end of each treatment time, cells were collected and washed with PBS after a gentle centrifugation at 200×g for 5 minutes. Cells were thoroughly resuspended in 0.5 mL of PBS and fixed in 70% ethanol for at least 2 hours at 4° C. Ethanol-suspended cells were then centrifuged at 200×g for 5 minutes and washed twice in PBS to remove residual ethanol. For cell cycle analysis, the pellets were suspended in 1 mL of PBS containing 0.02 mg/mL of propidiumiodide, 0.5 mg/mL of DNase-free RNase A and 0.1% of Triton X-100 and incubated at 37° C. for 30 minutes. Cell cycle profiles were obtained using a FACScan flowcytometer (Becton Dickinson, San Jose, Calif.) and data were analyzed by ModFit LT software (Verity Software House, Inc., Topsham, Me.).
It was noteworthy that SC21 induced S phase arrest in PC3 and HEY cell lines (FIG. 17).

For data set [2], the system named is T24 cells. Description: Two-dimensional gel electrophoresis proteomic analysis, SC23. The data set is classed as cell-based, human. As to conditions: 2D gel spots, SC23 treatment. The procedure:
Cells were treated for 12, 24, 48 and 72 hr with SC23 (IC80 dose). The soluble fraction was then extracted and quantified. […] of protein was loaded in the first dimension gel at 800 V for 16 h. Gels were then equilibrated, separated on a 12% SDS-PAGE gel for the second dimension, stained with CyproRuby, and imaged by Typhoon 9100.
SC23-Treated Cells Upregulate a Variety of Proteins in the Molecular Weight Range of 8-58 kDa. […] 2DE was then used to separate these proteins (FIG. 29). As above, treatment with SC23 led to a significant up-regulation of many proteins. Similar analysis was carried out for DU145 cells treated with SC23.
Proteins identified from the spots shown in FIG. 30 are 3-tubulin, myc promoter-binding protein (MPB-1), retinoblastoma-binding protein 7, vimentin, enolase, phosphopyruvate hydratase beta, mitochondrial ATP synthase beta chain.
Among the several spots that were at least 4-fold overexpressed was β-tubulin, which is related to the top three genes identified from our microarray analysis as described above.

Data set [3] concerns HOP-62 non-small cell lung cancer cells. Description: Sensitivity of various cancer cells to SC144, HOP-62. The data set is classed as cell-based. The following applies: Homo sapiens. The text has this: (§1) The studies were expanded to other cell lines. […] Subnanomolar to low nanomolar potency was also observed in HCT-116 and HT29 colon cancer cell lines (Table 2).
Data set [4] deals with HL60 leukemia cells. Put plainly: Sensitivity of various cancer cells to SC144, HL60. The format is cell-based. The following applies: Homo sapiens, HL-60.
From the text: as §1

Data set [5] concerns RPMI-8226 leukemia cells. Description: Sensitivity of various cancer cells to SC144, RPMI-8226. The format is cell-based. The following applies: Homo sapiens.
From the text: as §1

The subject of data set [6] is UACC-257 melanoma cells. Description: Sensitivity of various cancer cells to SC144, UACC-257. The data set is classed as cell-based. The following applies: Homo sapiens.
From the text: as §1

The test system of data set [7] is UO-31 renal cancer cells. Description: Sensitivity of various cancer cells to SC144, UO-31. The format is cell-based. As to conditions: Homo sapiens.
From the text: as §1

Data set [8] relates to MDA-MB-435 xenografts. Put plainly: Nude mice xenograft model of human breast MDA-MB-435 cells. The data set is classed as in vivo. On the procedure: FIG. 3. (A) is a schematic outline of tumor growth and dosing in xenograft models. […] Tumor growth was monitored for five weeks. Values represent the median tumor weight for each group.
After five-days of dosing, the drug treatment was discontinued and the animals were monitored bi-weekly for five weeks.
For statistical analysis, the % T/C value was calculated on the last day of dosing and is graphed for all of the treatment groups (FIG. 3C).
To evaluate the extent of tumor necrosis after drug treatment tumor samples were collected from control and treated mice on day 70.
(In general: In xenograft studies the graft and the host belong to different species.)

The subject of data set [9] is HCT 116 p53^+/+ colon cancer cells. Put plainly: MTT cytotoxicity assay, HCT 116 p53+/+. The data set is classed as cell-based, human. The following applies: Homo sapiens, 72 h. The text has this:
Human breast cancer cells MDA-MB-435 and colon cancer HT29, p53 mutant were purchased from the American Type Cell Culture (Manassas, Va.). The HCT116 P53^+/+ and HCT116 P53^−/− cells were kindly provided by Dr. Bert Vogelstein (Johns Hopkins Medical Institutions, Baltimore, Md.). Human prostate cancer cells, LNCaP, were kindly provided by Richard Cote (University of Southern California Keck School of Medicine). Cells were maintained as monolayer cultures in RPMI 1640 media supplemented with 10% fetal bovine serum (Gemini-Bioproducts, Woodland, Calif.) and 2 mmol/L L-glutamine at 37° C. in a humidified atmosphere of 5% CO2. To remove the adherent cells from the flask for passaging and counting, cells were washed with PBS without calcium or magnesium, incubated with a small volume of 0.25% trypsin-EDTA solution (Sigma-Aldrich, St. Louis, Mo.) for 5-10 min, and washed with culture medium and centrifuged. All experiments were performed using cells at exponential growth stage. Cells were routinely checked for mycoplasma contamination using a PCR-based assay (Stratagene, Cambridge, UK).
Cytotoxicity was assessed by a 3-(4,5-dimethylthiazol-2-yl)-2,5-diphenyltetrazolium bromide (MTT) assay as previously described.^9 Briefly, cells were seeded in 96-well microtiter plates and allowed to attach. Cells were subsequently treated with continuous exposure to the corresponding drug for 72 h. An MTT solution (at a final concentration of 0.5 mg/mL) was added to each well, and cells were incubated for 4 h at 37° C. After removal of the medium, DMSO was added and the absorbance was read at 570 nm. All assays were done in triplicate. The IC50 was then determined for each drug from a plot of log (drug concentration) versus percentage of cells killed.
On the technique in general: Formazan colour is commonly taken as a measure of viable cells.

“Also recorded” adds a separate entry of the source. Read-outs that look alike come from different tables or passages of the source.

Consider `O=C(NNC(=O)c1ccccc1O)C1=CC2C=CC=CC2C=C1O` (centres unmarked) [SC21], for which the “accumulation in S phase” value in [1] was 69%.
As to `O=C(NNC(O)c1cc2ccccc2cc1O)c1cc2ccccc2cc1O` (centres unmarked) [SC23], the β-tubulin protein overexpression result in data set [2] is on record as “at least 4 fold”.
For the molecule `O=C(NNc1nc2cc(F)ccc2n2cccc12)c1cnccn1` [SC144, Pyrazine-2-carboxylic acid N′-(7-fluoro-pyrrolo[1,2-a]quinoxalin-4-yl)-hydrazide], the CC50 in data set [3] (HOP-62, read-out: CC50) is 10 nM; in data set [3] (non-small cell lung cancer cells HOP-62, EKVX, and HOP-92, read-out: CC50 values range), 10 to 20 nM; in data set [4], 270 nM; in data set [5], 250 nM; in data set [6], 400 nM; in [7], 300 nM. Besides, the “organ toxicity (H&E staining of kidney, liver, heart tissues)” value in data set [8] (4 mg/kg) is recorded as “no damage in these organs; also recorded: does not exhibit organ toxicity”. In addition, the reduced tumor growth in [8] (4 mg/kg daily i.p. for five days) turned out to be 60%. Also, the “necrosis of tumor tissues” value in [8] (4 mg/kg, day 70, H&E staining) is on record as “greater than 80%”. Besides, the “tolerability, drug-related deaths” value in [8] (0.3, 0.8, 4 mg/kg daily i.p. five days) is “well tolerated and did not result in drug-related deaths”. Besides, the “body weight compared to vehicle control” value in [8] (mouse, in vivo) is recorded as “no changes in body weight”. Moreover, half-maximal inhibition in data set [9] (IC50) required 600 ± 70 nM.

For orientation: CC50 means the concentration that lowers cell viability or growth by half. The IC50 is the point on the concentration scale where inhibition reaches its midpoint. Low readings indicate greater potency, high ones weaker potency.
